Entries after “also recorded” stand apart in the source; their conditions may differ. Like-named read-outs stand apart in the source and are kept apart here.
Experiments:
[1] = preclinical in vitro studies; cited from earlier work
[2] = preclinical studies; cited from earlier work
[3] = tested on: Factor VII; conditions: LNP siRNA systems containing the lipid; cited from earlier work
[4] = tested on: CpG in the CTCF motif of the boundary adjacent to PDGFRA; assay: DNA methylation quantification (bisulfite sequencing), BT142 gliomaspheres treated with demethylating agent; assay type: cell-based, human; conditions: 5 μM 5-azacytidine for 8 days
Procedure: DNA Methylation Quantification-DNA methylation was analyzed in two ways. For gliomaspheres, genomic DNA was isolated via QiaAmp® DNA minikit (Qiagen®) and subjected to Bisulfite Conversion (EZ DNA Methylation GoldTM Kit-Zymo Research). Bisulfite converted DNA specific to the CTCF binding site (defined by JASPAR^40) in the boundary adjacent to PDGFRA was amplified using the following primers [NT]

[5] = tested on: CTCF; assay: CTCF occupancy ChIP qPCR at the boundary adjacent to PDGFRA, BT142 gliomaspheres; assay type: cell-based, human; conditions: 5 μM 5-azacytidine for 8 days
Procedure: Chromatin Immunoprecipitation-Chromatin Immunoprecipitation (ChIP) and sequencing (ChIP-Seq) was performed as described previously^32. Briefly, cultured cells or minced tissue was fixed in 1% formaldehyde and snap frozen in liquid nitrogen and stored at -80° C. for at least overnight. […] ChIP DNA was used to generate sequencing libraries by end repair (End-ItTM DNA repair kit, Epicentre), 3' A base overhang addition via Klenow fragment (NEB), and ligation of barcoded sequencing adapters. Barcoded fragments were amplified via PCR. […] Occupancy of the CTCF site in the boundary element adjacent to the PDGFRA locus was quantified by ChIP qPCR, using the following primers: […] CTCF peak intensity was further normalized as ratio to two invariant peaks, at PSMB1 and SPG11, using the following primers: PSMB1[NT]

[6] = tested on: acute leukemia of all cell types in relapse; conditions: end of trial, cited from earlier work
[7] = tested on: newly diagnosed AML; conditions: cited from earlier work
[8] = tested on: PDGFRA; conditions: BT142 gliomaspheres, 5 μM 5-azacytidine for 8 days
[9] = compared with aza; cited from earlier work
[10] = tested on: PDGFRA insulator; assay: ChIP-qPCR for CTCF and H3K9me3 after dCas9 / dCas9-KRAB recruitment, HEK293 cells; assay type: cell-based
Procedure: Applicants performed these experiments at the PDGFRA insulator in HEK293 cells (FIG. 16A, Top). […] HEK293 cells were seeded into 100 mm cell culture dishes two days before transfection and grown to 60-70% confluency. […] of either dCas9 or dCas9-KRAB constitutive expression vector (JDS286 and Addgene Plasmid #50919 respectively) (FIG. 18) and 1 ug of guide RNA expression vector (pXPR1_noCas, Broad GPP) (FIG. 19) were mixed in 450ul OptiMEM. 27ul of FugeneHD was added and tubes were vortexed for two times one second, incubated at room temp for ten minutes and added dropwise to cell culture dishes.
Cells were harvested three days after transfection and crosslinked in 1% formaldehyde at 37 C for 10 min. ChIP-qPCR was performed as previously described. Briefly, cells were lysed on ice, sonicated in 0.3% SDS for 5 minutes total time at ˜10W power, incubated with the relevant antibody overnight at 4C with rotation after dilution to 0.1% SDS. Antibody-bound chromatin was isolated using protein G magnetic beads. Bound complex is washed several times and eluted off the beads at 65C for 1h with shaking. Eluted complex is treated with RNase for 30 min at 37C and protinase K for 3h at 63C while crosslinks are reversed concurrently. IP DNA is cleaned up using a 2× Ampure XP DNA bead cleanup as per manufacturer's instructions.

[11] = tested on: OLIG2 insulator; assay: as above; assay type: cell-based
[12] = tested on: GSC6 gliomaspheres; assay: Cell growth assay (CellTiter-Glo), GSC6 cells expressing CRISPR; assay type: cell-based, human; conditions: 1 μM Dasatinib or 500 nM Crenolanib
Procedure: Cell Growth Assay—For the cell growth assay, 2,500 dissociated viable GSC6 cells expressing CRISPR and either GFP or Insulator targeting sgRNA (see above) were plated in […], of media in an opaque-walled tissue culture 96 well plate, in 1 μM Dasatinib, 500 nM Crenolanib, or equivalent DMSO (1:10,000) as a vehicle control. Cell growth was analyzed at days 3, 5, and 7 for Dasatinib, or days 3, 7, and 10 for Crenolanib, using CellTiter-Glo® reagent (Promega™) following the manufacturer's protocol. Data was normalized across days using an ATP standard curve.

[13] = biological target: T1, FIP1L1-PDGFRA (Homo sapiens, UniProt P16234); conditions: FIP1L1-PDGFRA versus BCR-ABL; cited from earlier work
T1 construct: the other entry of the earlier key: FIP1L1 (Q6UN15, Pre-mRNA 3'-end-processing factor FIP1)
T1 sequence (P16234 593-1089 limits assumed): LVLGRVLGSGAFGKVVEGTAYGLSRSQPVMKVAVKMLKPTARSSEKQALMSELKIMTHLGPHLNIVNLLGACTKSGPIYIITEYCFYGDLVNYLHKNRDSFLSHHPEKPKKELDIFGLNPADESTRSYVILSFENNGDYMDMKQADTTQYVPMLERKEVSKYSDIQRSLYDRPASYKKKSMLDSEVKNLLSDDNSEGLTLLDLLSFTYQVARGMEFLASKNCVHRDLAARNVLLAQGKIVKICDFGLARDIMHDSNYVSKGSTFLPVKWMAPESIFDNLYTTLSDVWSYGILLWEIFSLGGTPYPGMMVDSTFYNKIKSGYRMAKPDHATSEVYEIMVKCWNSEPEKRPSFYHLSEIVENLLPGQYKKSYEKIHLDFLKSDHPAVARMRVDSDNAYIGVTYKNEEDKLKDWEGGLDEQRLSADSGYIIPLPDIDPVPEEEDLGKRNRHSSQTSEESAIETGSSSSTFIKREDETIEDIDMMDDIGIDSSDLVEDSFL

[14] = tested on: MDS (RAEBT); conditions: patients with RAEBT, 3-day course 15 mg/m^2 daily; cited from earlier work
[15] = tested on: advanced leukemia or MDS; conditions: cited from earlier work
[16] = tested on: CMLs in transformation; conditions: first 13 patients, 100 mg/m^2 over 6 h every 12 h for 5 days; cited from earlier work

## Cc1cn(-c2cc(NC(=O)c3ccc(C)c(Nc4nccc(-c5cccnc5)n4)c3)cc(C(F)(F)F)c2)cn1 [nilotinib]
[1]
  potency relative to imatinib (factor): 20 to 50

## C[C@@H](Nc1nc(N[C@H](C)C(F)(F)F)nc(-c2cccc(Cl)n2)n1)C(F)(F)F [AG-881]
[2]
  blood-brain barrier penetration: fully penetrate the blood-brain barrier

## CCCCC/C=C\C/C=C\CCCCCCCCOCC(CN(C)C)OCCCCCCCC/C=C\C/C=C\CCCCC (stereo not shown) [DLinDMA, 1,2-dilinoleyloxy-3-N,N-dimethylaminopropane]
[3]
  gene silencing potency in hepatocytes in vivo (rank series): DLinKC2-DMA>DLinKDMA>DLinDMA>>DLinDAP

## Nc1ncn([C@@H]2O[C@H](CO)[C@@H](O)[C@H]2O)c(=O)n1 [5-aza, 5-azacytidine]
[4]
  reduction of methylation of the CTCF motif: ~2.5 fold
[5]
  increase of CTCF occupancy: ~1.7 fold
[6]; adult patients with acute leukemia in relapse
  overall response rate: 9.2%
[6]
  patients achieving complete remission: nine
  patients achieving partial remission: two
[7]; 15 adult patients, 75 mg/m^2 daily s.c. for 7 days every 4 weeks
  patients with complete or partial remission: Eight
[7]; in vivo
  average number of cycles to remission: three
[7]; patients who achieved complete remission
  duration of response, average: 8 (range, 6-13) cycles
[7]; patients who achieved partial remission
  duration of response, average: 3 (range, 2-3) cycles
[8]
  down-regulation of PDGFRA expression: ~5 fold

## O=c1ncccn1[C@@H]1O[C@H](CO)[C@@H](O)[C@H]1O [Zebularine]
[9]
  stability: more stable than aza

## CCCCC/C=C\C/C=C\CCCCCCCCC1(CCCCCCCC/C=C\C/C=C\CCCCC)OCC(CCN(C)C)O1 (stereo not shown) [DLinKC2-DMA, 1,2-dilinoleyl-4-(2-dimethylaminoethyl)-[1,3]-dioxolane]
[3]
  gene silencing potency in hepatocytes in vivo (rank series): DLinKC2-DMA>DLinKDMA>DLinDMA>>DLinDAP

## dCas9: enzymatically inactive CRISPR enzyme recruited by guide RNA to a CTCF insulator
[10]
  CTCF binding at the PDGFRA insulator: potently disrupts CTCF binding; also recorded: can reduce CTCF binding
[11]
  CTCF binding at the OLIG2 insulator: can disrupt CTCF binding; also recorded: can reduce CTCF binding

## CC1(COc2ccc3c(c2)ncn3-c2ccc3cccc(N4CCC(N)CC4)c3n2)COC1 [crenolanib]
[12]
  effect on the growth advantage of insulator CRISPR gliomaspheres: abrogated
[12]; listed as Crenolanib
  effect on the growth advantage of insulator CRISPR gliomaspheres: eliminated

## Cc1ccc(NC(=O)c2ccc(CN3CCN(C)CC3)cc2)cc1Nc1nccc(-c2cccnc2)n1 [Imatinib]
[13]
  IC50 lower as compared to BCR-ABL: 250 fold

## Nc1ncn([C@H]2C[C@H](O)[C@@H](CO)O2)c(=O)n1 [decitabine, 5-aza-2′-deoxycytidine]
[14]
  percentage of responders: 70%
[15]; 37 patients with AML
  complete response (CR): 14%
  partial response (PR): 8%
[15]; comparison group to the higher doses / longer cycles
  response rate: 45%
[15]; five patients with CML
  patients achieving CR: two
  patients achieving PR: two
[15]; higher doses (20 mg/m^2 for 10 days) and longer treatment cycles (15 mg/m2 for 20 days)
  response rate: 11%
[15]; in vivo
  patients in whom only one cycle of therapy was required to achieve a CR: eight of nine
[15]; overall, 48 patients
  objective responses: 33%
[15]; seven patients with MDS
  complete response (CR): 28.5%
  patients achieving PR: two
[16]
  adverse effect: severe prolonged myelosuppression

## CCCCC/C=C\C/C=C\CCCCCCCC(=O)OCC(CN(C)C)OC(=O)CCCCCCC/C=C\C/C=C\CCCCC (stereo not shown) [DLinDAP, 1,2-dilineoyl-3-dimethylammonium-propane]
[3]
  gene silencing potency in hepatocytes in vivo (rank series): DLinKC2-DMA>DLinKDMA>DLinDMA>>DLinDAP

## 1,2-dilinoleyloxy-keto-N,N-dimethyl-3-aminopropane [DLinKDMA]
[3]
  gene silencing potency in hepatocytes in vivo (rank series): DLinKC2-DMA>DLinKDMA>DLinDMA>>DLinDAP

Source: US11339442B2, “Methods of detecting insulator dysfunction and oncogene activation for screening, diagnosis and treatment of patients in need thereof” (THE GENERAL HOSPITAL CORPORATION, priority 2015, dated 2022)
